Here are results for two compounds from patent US20070155824A1, “USE OF BENZO-FUSED HETEROCYCLE SULFAMIDE DERIVATIVES FOR DISEASE MODIFICATION / EPILEPTOGENESIS” (priority 2005, published 2007).

Data set [1] has as its system amygdala kindled rat model of partial epilepsy. The data set is described as follows: In Vivo, Amygdala Kindling Assay. Details: species or system Sprague-Dawley rats. The note with it: rats. The source says:
The development of amygdala kindling is an established model of epileptogenesis. (Amano K, Hamada K, Yagi K, Seino M. Antiepileptic effects of topiramate on amygdaloid kindling in rats. Epilepsy Res. 1998 Jul;31(2):123-8; Barton M E, White H S. The effect of CGX-1007 and CI-1041, novel NMDA receptor antagonists, on kindling acquisition and expression. Epilepsy Res. 2004 Mar;59(1):1-12; Loscher W, Honack D, Rundfeldt C. Antiepileptogenic effects of the novel anticonvulsant levetiracetam (ucb L059)in the kindling model of temporal lobe epilepsy. J Pharmacol Exp Ther. 1998 Feb;284(2):474-9; McNamara J O. Analyses of the molecular basis of kindling development. Psychiatry Clin Neurosci. 1995 June; 49(3):S175-8. Review.; Morimoto K, Katayama K, Inoue K, Sato K. Effects of competitive and noncompetitive NMDA receptor antagonists on kindling and LTP. Pharmacol Biochem Behav. 1991 Dec;40(4):893-9; Racine, R. J. 1972. Modification of seizure activity by electrical stimulation. II. Motor seizure. Electroencephalogr. Clin. Neurophysiol. 32, 281-294). The kindled rat model of partial epilepsy is an accepted model of epileptogenesis (McNamara J O. Analyses of the molecular basis of kindling development. Psychiatry Clin Neurosci. 1995 Jun;49(3):S1 75-8. Review.).
Briefly, the assay procedure was as follows. Adult male, Sprague-Dawley rats weighing between 250-300 g were obtained from Charles River, Wilmington, Mass. All the animals were housed on a 12:12 light dark cycle and permitted free access to both food (Prolab RMH 3000) and water except when removed from the home cage for experimental procedures. Animals were cared for in a matter consistent with the recommendations detailed in the National Research Council Publication, “Guide for the Care and Use of Laboratory Animals” in a temperature controlled, pesticide-free facility. Kindling stimulations were routinely performed between 9 AM-2 PM to avoid any circadian variations.
Compound #8 was triturated in a small volume of 0.5% methylcellulose, sonicated for 10 min, and brought to a final volume with 0.5% methylcellulose. Compound #8 was administered systemically (i.p.) in a volume of 0.04 ml/10 g body weight and all tests were conducted at the pre-determined time of peak effect of 0.5 hours after i.p. administration.
The ability of Compound #8 to block the expression of amygdala kindled seizures was determined as follows. Rats were anaesthetized with a ketamine (120 mg/kg, i.p.) and xylazine (12 mg/kg, i.p.) cocktail. […]
Amygdala kindling was then performed according to the following protocol. […] The behavioral seizure score and AD duration was recorded for rats in each treatment group. […]

Regarding `NS(=O)(=O)NC[C@H]1COc2cc(Cl)ccc2O1` [Compound #8, (2S)-(−)-N-(6-Chloro-2,3-dihydro-benzo[1,4]dioxin-2-ylmethyl)-sulfamide], the “behavioral seizure score (Racine scale) at the conclusion of the drug- and stimulus-free period” value in data set [1] (75 mg/kg i.p. 30 min before daily amygdala stimulation (200 μA, 2 s) for up to 13 days, re-challenge without drug after one-week drug- and stimulus-free period, vehicle=4.6±0.24) came out at 1.4±0.40. The “acquisition of the full generalized kindled seizure” value in data set [1] (75 mg/kg i.p. during kindling acquisition) is “prevented the acquisition of the full generalized kindled seizure”. Also, in data set [1] (75 mg/kg i.p., daily stimulation, progressive increase in both groups), the “after-discharge (AD) duration over the kindling acquisition phase vs vehicle” value is on record as “No statistical difference between treatment groups”. Also, in data set [1] (stimulated in the absence of drug after the drug-free week, seizure score rose parallel to vehicle), the “delay of acquisition of kindling” value was “delayed the acquisition of kindling by several days”.
What is called melting point is the temperature, or range, at which the solid turns liquid. With `NS(=O)(=O)NCC1CCc2ccccc2O1` (centres unmarked) [Compound #10, Chroman-2-ylmethylsulfamide], the melting point lay in the range of 100 to 101 °C.
